According to US20230020161A1, “Tricyclic Modulators of PP2A” (Rappta Therapeutics Oy, priority 2020, published 2023):

Legend:
[1] = target: T1, Human Pregnane X Receptor (PXR, NR1I2) (Homo sapiens, UniProt O75469); assay: PXR activation assay (Puracyp DPX2-96-001); type: cell-based
T1 construct: host or cells: DPX2 cells of the kit
T1 sequence (O75469 1-434): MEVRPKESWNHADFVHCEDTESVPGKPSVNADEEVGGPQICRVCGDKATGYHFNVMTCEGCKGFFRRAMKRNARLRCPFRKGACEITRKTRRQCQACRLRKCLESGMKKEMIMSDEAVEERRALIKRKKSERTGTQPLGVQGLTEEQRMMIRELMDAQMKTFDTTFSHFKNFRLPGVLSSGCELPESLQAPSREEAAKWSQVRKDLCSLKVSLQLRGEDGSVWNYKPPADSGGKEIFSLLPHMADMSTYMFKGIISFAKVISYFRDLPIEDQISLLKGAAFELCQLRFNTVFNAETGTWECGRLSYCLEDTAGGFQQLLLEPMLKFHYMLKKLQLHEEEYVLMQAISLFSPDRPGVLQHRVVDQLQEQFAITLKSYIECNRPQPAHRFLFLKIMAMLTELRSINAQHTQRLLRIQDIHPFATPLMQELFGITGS
Excerpt: PXR is a nuclear hormone receptor involved in the transcriptional regulation of a number of metabolic enzymes (e.g. CYP3A4) and transporters (e.g. PGP). Its activation by xenobiotic substances leads to upregulation of those metabolic enzymes and transporters and consequent removal of those substances from systemic circulation. It is not uncommon to find that drugs activate the PXR receptor with problematic consequences. […] In addition, if the drug itself is metabolized by, for example, CYP3A4, then there can be reduced exposure of the drug on repeated administration (auto-induction). It is thus considered beneficial to eliminate or at least minimize PXR activation if drug candidates. For drug series where PXR activation is significant, PXR activation is generally treated as a key criterion for optimization and advancement (V. Chu et al., Drug Metab. Dispos. 37, 1339 (2009).
PXR activation assay was performed according to manufacturer's instructions (Puracyp, Inc, Catalog #DPX2-96-001).

[2] = system: LNCaP cells; assay: Cell viability assay (MTS) in LNCaP cells; type: cell-based; settings: doses 1 μM to 80 μM
Experimental: Cell line LNCaP was used for this assay. LNCaP cells were plated in 96-well plates at a density of 5000 cells per well. After 24 hours of plating, cells were treated with increasing doses of compound ranging from 1 μM to 80 μM. Relative cell numbers were analyzed after 48 hours using a 3-(4,5-dimethylthiazol-2-yl)-5-(3-carboxymethoxyphenyl)-2-(4-sulfophenyl)-2H-tetrazolium (MTS) assay (Promega) according to the manufacturer's directions.
LNCaP cells were treated with increasing doses of Target compound and cell viability was measured at 48 hours by MTS analysis.
The cell viability data was analyzed with GraphPad Prism software. The values were log transformed and analyzed with nonlinear regression (curve-fit) using log(inhibitor) vs. response variable slope (four parameters) and constraining the bottom to equal zero.

[3] = Concentration observed is at 10 μM

Structure (SMILES)	Maximum fold activation observed (Average) [1, 3]	Percent positive control response [1, 3] [%]	GI50 ([2]; Homo sapiens, LNCaP, 48 h) [µM]	Percent positive control response ([1]; @30 μM)	GI50 ([2]; 48 hours) [µM]
N=[S@](=O)(N[C@@H]1CCC[C@H](N2c3ccccc3Oc3ccccc32)[C@H]1O)c1ccc(OC(F)(F)F)cc1 (relative stereo) [Target T11-1]	4.57	24.2	16.7		
N=[S@@](=O)(N[C@@H]1CCC[C@H](N2c3ccccc3Oc3ccccc32)[C@H]1O)c1ccc(OC(F)(F)F)cc1 (relative stereo) [Target T11-2]	4.82	26	16.8		
N=[S@](=O)(N[C@@H]1COC[C@H](N2c3ccccc3Oc3ccccc32)[C@H]1O)c1ccc(OC(F)(F)F)cc1 (relative stereo) [Target T14-1]	6.21		25.6	35.4 @30 μM %	
N=[S@@](=O)(N[C@@H]1COC[C@H](N2c3ccccc3Oc3ccccc32)[C@H]1O)c1ccc(OC(F)(F)F)cc1 (relative stereo) [Target T14-2]	4.12	21.2	25.6		
CN=[S@](=O)(N[C@@H]1COC[C@H](N2c3ccccc3Oc3ccccc32)[C@H]1O)c1ccc(OC(F)(F)F)cc1 (relative stereo) [Target T15-1]	3.89	19.6	16.6		
N=[S@@](=O)(N[C@@H]1COC[C@H](n2c3ccc(Cl)cc3c3cc(Cl)ccc32)[C@H]1O)c1ccc(OC(F)(F)F)cc1 (relative stereo) [Target T17-2]	2.45	9.88	9.64		
N=[S@@](=O)(NC[C@H](O)CN1c2ccccc2CCc2ccccc21)c1ccc(OC(F)(F)F)cc1 (single isomer, unassigned) [Target T5d1]			25.8		
CN=[S@@](=O)(NC[C@H](O)CN1c2ccccc2CCc2ccccc21)c1ccc(OC(F)(F)F)cc1 (single isomer, unassigned) [Target T6d1]			22.7		
CN=[S@](=O)(NC[C@H](O)CN1c2ccccc2CCc2ccccc21)c1ccc(OC(F)(F)F)cc1 (single isomer, unassigned) [Target T6d2]			24.5		
O=S(=O)(N[C@@H]1COC[C@H](N2c3ccccc3Oc3ccccc32)[C@H]1O)c1ccc(OC(F)(F)F)cc1 [Target T13, reference compound]	11	57			14.2
O=S(=NCC1CC1)(N[C@@H]1COC[C@H](N2c3ccccc3Oc3ccccc32)[C@H]1O)c1ccc(OC(F)(F)F)cc1 (stereo partly drawn) [Target T15A, N-(cyclopropylmethyl)-N′-((3R,4R,5S)-4-hydroxy-5-(10H-phenoxazin-10-yl)tetrahydro-2H-pyran-3-yl)-4-(trifluoromethoxy) benzenesulfonimidoamide]			9.54		

More lines, now with the values ahead:

Maximum fold activation observed (Average) [1, 3]	Percent positive control response [1, 3] [%]	GI50 ([2]; Homo sapiens, LNCaP, 48 h) [µM]	Percent positive control response ([1]; @30 μM)	GI50 ([2]; 48 hours) [µM]	Structure (SMILES)
7.15	41.8	23.6			CN=[S@@](=O)(N[C@@H]1COC[C@H](N2c3ccccc3Oc3ccccc32)[C@H]1O)c1ccc(OC(F)(F)F)cc1 (relative stereo) [Target T15-2]
2.43	9.75	10.2			N=[S@](=O)(N[C@@H]1COC[C@H](n2c3ccc(Cl)cc3c3cc(Cl)ccc32)[C@H]1O)c1ccc(OC(F)(F)F)cc1 (relative stereo) [Target T17-1]
1.79	5.37	8.53			CN=[S@](=O)(N[C@@H]1COC[C@H](n2c3ccc(Cl)cc3c3cc(Cl)ccc32)[C@H]1O)c1ccc(OC(F)(F)F)cc1 (relative stereo) [Target T18-1]
2.36	9.23	12.2			CN=[S@@](=O)(N[C@@H]1COC[C@H](n2c3ccc(Cl)cc3c3cc(Cl)ccc32)[C@H]1O)c1ccc(OC(F)(F)F)cc1 (relative stereo) [Target T18-2]
		20.2			N=[S@](=O)(NC[C@H](O)CN1c2ccccc2CCc2ccccc21)c1ccc(OC(F)(F)F)cc1 (single isomer, unassigned) [Target T5d2]
17.3	89.8	10.7			O=S(=O)(N[C@@H]1COC[C@H](N2c3ccccc3Oc3ccccc32)[C@H]1O)c1ccc(OC(F)(F)F)cc1 [T10 (DT-061), reference compound]
		55.4			CCCN=S(=O)(N[C@@H]1COC[C@H](N2c3ccccc3Oc3ccccc32)[C@H]1O)c1ccc(OC(F)(F)F)cc1 (stereo partly drawn) [Target T15C, N-((3R,4R,5S)-4-hydroxy-5-(10H-phenoxazin-10-yl)tetrahydro-2H-pyran-3-yl)-N′-propyl-4-(trifluoromethoxy) benzenesulfonimidoamide]
3.93	16.7	8.2			O=S(=O)(N[C@@H]1COC[C@H](n2c3ccc(Cl)cc3c3cc(Cl)ccc32)[C@H]1O)c1ccc(OC(F)(F)F)cc1 [Target T16, reference compound]
